Experimental data published in ChEMBL document CHEMBL5244246, “Recent advances in chemistry and bioactivity of marine cyanobacteria Moorea species” (Eur J Med Chem, 2020).

Assays:
[1] = test system: N2a; test: Cytotoxicity against mouse Neuro2a cells assessed as inhibition of cell growth; format: functional, cell-based; conditions: Mus musculus, N2a
[2] = Toxicity in brine shrimp assessed as lethal dose; conditions: artemia salina; read-out: LD50 (the source's name)
[3] = test system: Nitzschia amabilis; test: Growth inhibition of marine diatom assessed as inhibition rate at 10 ug/ml relative to control; format: functional
[4] = test system: HeLa; test: Cytotoxicity against human HeLa cells assessed as inhibition of cell growth incubated for 48 hrs by WST-8 colorimetric assay; format: functional, cell-based
[5] = test system: Mycobacterium tuberculosis; test: Antimycobacterial activity against Mycobacterium tuberculosis H37Rv assessed as inhibition of bacterial growth at 12.5 ug/ml relative to control; format: functional
[6] = test system: A549; test: Cytotoxicity against human A549 cells assessed as cell growth inhibition; format: functional, cell-based
[7] = test system: MDA-MB-231; test: Cytotoxicity against human MDA-MB-231 cells assessed as cell growth inhibition; format: functional
[8] = test system: HT-29; test: Cytotoxicity against human HT-29 cells assessed as cell growth inhibition; format: functional
[9] = test system: NCI-H460; test: Cytotoxicity against human NCI-H460 cells; format: functional, cell-based
[10] = molecular target: Protein kinase C delta type (Homo sapiens, UniProt Q05655); test: Inhibition of [3H]-PDBu binding to PKCdelta C1B domain (unknown origin) by competitive binding assay
[11] = Toxicity in shrimp assessed as lethal dose; conditions: palaemon paucidens
[12] = test system: L1210; test: Cytotoxicity against mouse L1210 cells assessed as inhibition of cell growth; format: functional, cell-based
[13] = test system: L1210; test: Cytotoxicity against mouse L1210 cells assessed as inhibition of cell growth at 10 ug/mL relative to control; format: functional; conditions: for inhibition at 10 µg/mL: Mus musculus, L1210, dose 10 µg/ml; for inhibition (INH): dose 10 µg/ml
[14] = species: Homo sapiens; test: Inhibition of Voltage-gated sodium channel (unknown origin) at 3 ug/ml incubated for 18 hrs by cell-based bioassay relative to control; conditions: dose 3.0 µg/ml

Chain of Protein kinase C delta type (Q05655 whole entry, the tested form may be a part): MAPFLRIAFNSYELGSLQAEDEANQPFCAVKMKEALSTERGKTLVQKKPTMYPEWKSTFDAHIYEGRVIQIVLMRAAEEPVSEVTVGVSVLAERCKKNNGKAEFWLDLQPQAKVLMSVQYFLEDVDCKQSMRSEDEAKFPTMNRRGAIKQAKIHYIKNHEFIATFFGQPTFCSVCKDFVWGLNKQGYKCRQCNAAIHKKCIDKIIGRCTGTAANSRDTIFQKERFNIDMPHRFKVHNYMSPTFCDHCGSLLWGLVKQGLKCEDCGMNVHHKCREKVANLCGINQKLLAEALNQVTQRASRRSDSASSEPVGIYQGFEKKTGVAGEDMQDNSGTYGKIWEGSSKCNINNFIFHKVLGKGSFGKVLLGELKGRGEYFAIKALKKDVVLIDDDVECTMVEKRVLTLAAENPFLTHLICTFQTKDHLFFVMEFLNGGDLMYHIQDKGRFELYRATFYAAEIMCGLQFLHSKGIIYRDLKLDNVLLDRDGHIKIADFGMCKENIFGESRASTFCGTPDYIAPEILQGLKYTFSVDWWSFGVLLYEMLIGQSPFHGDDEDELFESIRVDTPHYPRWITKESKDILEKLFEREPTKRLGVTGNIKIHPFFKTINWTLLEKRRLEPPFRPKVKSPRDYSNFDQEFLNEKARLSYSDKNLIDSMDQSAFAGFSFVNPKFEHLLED

For `C=CC/C=C/N(C)C(=O)CCCCCCCC/C=C/[C@H](CSSC[C@@H](/C=C/CCCCCCCCC(=O)N(C)/C=C/CC=C)NC(C)=O)NC(C)=O`, the IC50 [1] was 1.4 µg/mL.
Work on `COC(=O)C(CCCCCC(Cl)Cl)C(CCCC#CC=C(Cl)Cl)NC=O` (stereo not drawn) yielded an LC50 [2] of 1.7 µg/mL.
Molecule `CO[C@@H](CC[C@H](C)[C@H]1O[C@@]23C[C@H](OC(=O)C[C@H]([C@@H](C)O)OC(=O)/C=C(\O2)[C@@](C)(OO)CC3(C)C)[C@@H]1C)c1cc(O)ccc1Br` has an inhibition at 10 µg/mL [3] of 30%.
For `COC(=O)C(CCCCCC(Cl)Cl)C(CCCC#C/C=C/Cl)NC=O` (stereo not drawn), the LC50 [2] was 1.7 µg/mL.
Molecule `CC[C@@H](C)[C@H]1C(=O)N2CCC[C@H]2C(=O)O[C@H](C(C)(C)C)C[C@@H](C)C[C@H](O)[C@H](C)C2=N[C@@H](/C=C(\C)C(=O)N[C@@H](Cc3ccc(OCCCCCCCn4cc(-c5ccccc5)nn4)cc3)C(=O)N(C)[C@@H](C)C(=O)N1C)CS2` has an IC50 [4] of 0.05 µM.
For `CO[C@@H](CC[C@H](C)[C@H]1OC2=C(/C(=C/C(=O)O[C@@H]3CC(=O)O[C@@H]3C)[C@H](C)CC2(C)C)[C@H](OC)[C@@H]1C)c1cc(O)ccc1Br`, the inhibition at 10 µg/mL [3] was 30%.
In the case of `CO[C@@H](CC[C@H](C)[C@H]1O[C@]23C[C@H](OC(=O)C[C@H]([C@@H](C)O)OC(=O)CC(=C(C)CC2(C)C)O3)[C@@H]1C)c1cc(O)ccc1Br`, the inhibition at 10 µg/mL [3] is reported as 30%.
`CCCCCCC[C@@H](C/C=C/CCC(=O)N(C)C/C(=C\Cl)C/C(=C\C(=O)N1CC=CC1=O)OC)OC` showed an inhibition at 12.5 µg/mL [5] of 10%, a GI50 [6] of 40 µM and a GI50 [7] of 40 µM. The GI50 [8] was 40 µM.
Work on `CO/C(=C/C(=O)N1C(=O)C=C[C@@H]1C)CCNC(=O)CC/C=C/C(C)CC/C(=C\Cl)CCCC#CBr` (stereo partly drawn) yielded an IC50 [9] of 15 µM and an IC50 [1] of 15 µM.
`C=C[C@@](C)(CCC=C(C)C)c1ccc2c3c(c[nH]c13)C[C@@H](CO)NC(=O)[C@H](C(C)C)N2C` showed a Ki [10] of 0.00011 µM, an LD100 [11] of 5 mg/kg and an IC50 [12] of 8.1 µM.
In the case of `C=C[C@@](C)(CCC=C(C)C)c1ccc2c3c1NC(=O)[C@@]3(O)C[C@@H](CO)NC(=O)[C@@H](C(C)C)N2C`, the Ki [10] is reported as 1.4 µM, the LD33 [11] is reported as 89 mg/kg and the IC50 [12] is reported as 98 µM.
Molecule `CCCCCCCCCCCCCC/C=C/CCC1OC1C(=O)N[C@H](C)CO` (stereo partly drawn) has an LC50 [2] of 13 µM.
`CO[C@@H](CC[C@H](C)[C@H]1O[C@]23C[C@H](OC(=O)C[C@@H]([C@@H](C)O)OC(=O)CC(=C(C)CC2(C)C)O3)[C@@H]1C)c1cccc(O)c1` gave an inhibition at 10 µg/mL [3] of 30%.
For `COC(=O)[C@H](CCC#CC=C(Cl)Cl)[C@@H](CCCC#CCC(Cl)Cl)NC=O`, the LC50 [2] was 1.7 µg/mL.
Molecule `CC[C@@H](C)[C@H]1C(=O)N2CCC[C@H]2C(=O)O[C@H](C(C)(C)C)C[C@@H](C)C[C@H](O)[C@H](C)C2=N[C@@H](/C=C(\C)C(=O)N[C@@H](Cc3ccc(OCCCCCCCN=[N+]=[N-])cc3)C(=O)N(C)[C@@H](C)C(=O)N1C)CS2` has an IC50 [4] of 0.08 µM.
With `CC[C@H](C)[C@H]1C(=O)N(C)[C@@H](C)C(=O)O[C@H](C(C)(C)C)C[C@@H](C)C[C@H](O)[C@H](C)C2=NC(/C=C(\C)C(=O)N[C@@H](Cc3ccc(OC)cc3)C(=O)N(C)[C@@H](C)C(=O)N1C)CS2` (stereo partly drawn) the IC50 [9] was 0.002 µM.
Work on `COc1ccc(C[C@@H]2NC(=O)/C(C)=C/C3CSC(=N3)[C@@H](C)[C@@H](O)C[C@H](C)C[C@@H](C(C)(C)C)OC(=O)[C@H](C)N(C)C(=O)[C@H](C(C)C)N(C)C(=O)[C@H](C)N(C)C2=O)cc1` (stereo partly drawn) yielded an IC50 [9] of 0.014 µM.
In the case of `CO[C@@H](CC[C@H](C)[C@H]1O[C@@]23C[C@H](OC(=O)C[C@H]([C@@H](C)O)OC(=O)/C=C(\O2)[C@@](C)(O)CC3(C)C)[C@@H]1C)c1cc(O)ccc1Br`, the inhibition at 10 µg/mL [3] is reported as 30%, the inhibition at 10 µg/mL [13] is reported as 10% and the “inhibition (INH)” value [13] is reported as 20%.
With `CO[C@@H](CC[C@H](C)[C@H]1O[C@@]23C[C@H](OC(=O)C[C@H]([C@@H](C)O)OC(=O)C[C@](O)(O2)[C@H](C)CC3(C)C)[C@@H]1C)c1cccc(O)c1` [DEBROMOAPLYSIATOXIN] the inhibition at 10 µg/mL [3] was 30%.
`CO[C@@H](CC[C@H](C)[C@H]1O[C@@]23C[C@H](OC(=O)C[C@H]([C@@H](C)O)OC(=O)/C=C(\O2)[C@@](C)(O)CC3(C)C)[C@@H]1C)c1cccc(O)c1` gave an inhibition at 10 µg/mL [3] of 30%.
In the case of `CO[C@@H](CC[C@H](C)[C@H]1O[C@]23C[C@H](OC(=O)C[C@H]([C@@H](C)O)OC(=O)C(O)C(=C(C)CC2(C)C)O3)[C@@H]1C)c1cc(O)ccc1Br` (stereo partly drawn), the inhibition at 10 µg/mL [3] is reported as 30%, the inhibition at 10 µg/mL [13] is reported as 10% and the “inhibition (INH)” value [13] is reported as 20%.
For `COC(=O)C(CCC#CC=C(Cl)Cl)C(CCCC#CCC(Cl)Cl)NC=O` (stereo not drawn), the LC50 [2] was 1.7 µg/mL.
Molecule `CC[C@@H](C)[C@H]1C(=O)N2CCC[C@H]2C(=O)O[C@H](C(C)(C)C)C[C@@H](C)C[C@H](O)[C@@H](C)C2=N[C@@H](/C=C(\C)C(=O)N[C@@H](Cc3ccc(OC)cc3)C(=O)N(C)[C@@H](C)C(=O)N1C)CS2` has an IC50 [4] of 0.19 µM.
For `CCCCCCCC[C@@H](C/C=C/CCC(=O)NC/C(=C/Cl)[C@]12O[C@H]1[C@H](OC(C)=O)CCC2=O)OC`, the IC50 [9] was 4 µM, the IC50 [1] was 4 µM and the inhibition [14] was 28%.
